From patent US8178506B2, “Oligomeric compounds and compositions for use in modulation of small non-coding RNAs” (Regulus Therapeutics Inc., priority 2003, dated 2012)
Where “and” joins values, the source holds several entries; their conditions need not be identical. Identical values can stand only once. In the oligonucleotide strings, read from the 5' end, every base follows the letter of its sugar. An asterisk marks phosphorothioate; unmarked linkages are phosphodiester. Other units and linkages are bracketed, terminal groups are in braces. A string of capitals states the bases alone. e = 2'-O-(2-methoxyethyl) (MOE); [5mC] = 5-methylcytosine; d = 2'-deoxy (DNA)

Tests used:
HeLa cells = assay: Cell cycle assay in HeLa cells; format: cell-based, human; conditions: HeLa cells; for % cells aneuploid / % cells in cell cycle phase G1 / % cells in cell cycle phase G2/M / % cells in cell cycle phase S / % cells in cell cycle phase subG1: 24 hours, relative to untreated control (UTC = 100)
T47D cells = assay: Caspase-3 activity assay (apoptosis) in T47D cells; conditions: for Fold Increase over UTC (caspase-3 activity, apoptosis): T47D cells, 200 nM oligomeric compound, 48 hours; for apoptosis in T47D cells: caspase assay, 200 nM, conclusion from Tables 9-12
[1] = 150 nM oligomeric compound, 48 hours after treatment, relative to untreated control (UTC=100)
[2] = 25 nM, 48 hours, percentage of cells in phase, average of replicates
[3] = 50 nM, 48 hours, percentage of cells in phase, average of replicates
[4] = 100 nM, 48 hours, percentage of cells in phase, average of replicates
[5] = 150 nM, 48 hours, percentage of cells in phase, average of replicates

328374 (eA*eG*e[5mC]*eT*eT*dT*dA*dG*d[5mC]*dT*dG*dG*dG*dT*d[5mC]*eA*eG*eG*eA*e[5mC]; antisense) [compound 328374]
% cells aneuploid (HeLa cells; 150 nM oligomeric compound): 97% | % cells in cell cycle phase G1 (HeLa cells; 150 nM oligomeric compound): 54% | % cells in cell cycle phase G2/M (HeLa cells; 150 nM oligomeric compound): 162% | % cells in cell cycle phase S (HeLa cells; 150 nM oligomeric compound): 115% | % cells in cell cycle phase subG1 (HeLa cells; 150 nM oligomeric compound): 198% | % cells in cell cycle phase: G1 (HeLa cells; [1]): 65% | % cells in cell cycle phase: G2/M (HeLa cells; [1]): 143% | % cells in cell cycle phase: S (HeLa cells; [1]): 157% | % cells in cell cycle phase: aneuploid (HeLa cells; [1]): 71% | % cells in cell cycle phase: subG1 (HeLa cells; [1]): 787% | Fold Increase over UTC (caspase-3 activity, apoptosis) (T47D cells; experiment of Table 11): 1.1 fold

328383 (eA*eG*eA*eG*eG*dG*dG*dA*dG*dA*d[5mC]*dG*dA*dG*dA*eG*e[5mC]*eA*e[5mC]*eT) [compound 328383]
% cells in cell cycle phase: G2/M (HeLa cells; 25 nM, 48 hours): 18% | % cells in cell cycle phase: G1 (HeLa cells; [2]): 57% | % cells in cell cycle phase: S (HeLa cells; [2]): 25% | % cells in cell cycle phase: aneuploid (HeLa cells; [2]): 12% | % cells in cell cycle phase: subG1 (HeLa cells; [2]): 1.9% | % cells in cell cycle phase: G2/M (HeLa cells; 50 nM, 48 hours): 18% | % cells in cell cycle phase: G1 (HeLa cells; [3]): 56% | % cells in cell cycle phase: S (HeLa cells; [3]): 25% | % cells in cell cycle phase: aneuploid (HeLa cells; [3]): 13% | % cells in cell cycle phase: subG1 (HeLa cells; [3]): 1.3% | % cells in cell cycle phase: G2/M (HeLa cells; 100 nM, 48 hours): 30% | % cells in cell cycle phase: G1 (HeLa cells; [4]): 36% | % cells in cell cycle phase: S (HeLa cells; [4]): 34% | % cells in cell cycle phase: aneuploid (HeLa cells; [4]): 10% | % cells in cell cycle phase: subG1 (HeLa cells; [4]): 9.3% | % cells aneuploid (HeLa cells; 150 nM oligomeric compound): 92% and 98% | % cells in cell cycle phase G1 (HeLa cells; 150 nM oligomeric compound): 55% and 63% | % cells in cell cycle phase G2/M (HeLa cells; 150 nM oligomeric compound): 222% and 183% | % cells in cell cycle phase S (HeLa cells; 150 nM oligomeric compound): 82% and 97% | % cells in cell cycle phase subG1 (HeLa cells; 150 nM oligomeric compound): 314% and 289% | % cells in cell cycle phase: G1 (HeLa cells; [1]): 53% and 54% | % cells in cell cycle phase: G2/M (HeLa cells; [1]): 124% and 150% | % cells in cell cycle phase: S (HeLa cells; [1]): 217% and 178% | % cells in cell cycle phase: aneuploid (HeLa cells; [1]): 90% | % cells in cell cycle phase: G2/M (HeLa cells; 150 nM, 48 hours): 34% | % cells in cell cycle phase: G1 (HeLa cells; [5]): 29% | % cells in cell cycle phase: S (HeLa cells; [5]): 36% | % cells in cell cycle phase: aneuploid (HeLa cells; [5]): 11% | % cells in cell cycle phase: subG1 (HeLa cells; [5]): 11.8% | Fold Increase over UTC (caspase-3 activity, apoptosis) (T47D cells; experiment of Table 10): 1.2 fold

SEQ ID NO 502: gapmer of Tables 9-12 having this SEQ ID NO (antisense eG*e[5mC]*eT*eG*eG*d[5mC]*d[5mC]*dT*dG*dA*dT*dA*dG*d[5mC]*d[5mC]*e[5mC]*eT*eT*e[5mC]*eT)
apoptosis in T47D cells (T47D cells): induce apoptosis

SEQ ID NO 510: gapmer of Tables 9-12 having this SEQ ID NO (antisense eG*e[5mC]*e[5mC]*e[5mC]*eT*d[5mC]*dG*dA*d[5mC]*dG*dA*dA*dA*dA*d[5mC]*e[5mC]*eG*eA*e[5mC]*eT)
apoptosis in T47D cells (T47D cells): prevent or have a protective effect from apoptosis

SEQ ID NO 511: gapmer of Tables 9-12 having this SEQ ID NO (antisense eT*eT*eG*eA*eA*d[5mC]*dT*d[5mC]*d[5mC]*dA*dT*dG*d[5mC]*d[5mC]*dA*e[5mC]*eA*eA*eG*eG)
apoptosis in T47D cells (T47D cells): induce apoptosis

SEQ ID NO 516: gapmer of Tables 9-12 having this SEQ ID NO (antisense eA*eA*eT*eG*eG*dA*dG*d[5mC]*d[5mC]*dA*dA*dG*dG*dT*dG*e[5mC]*eT*eG*e[5mC]*e[5mC])
apoptosis in T47D cells (T47D cells): induce apoptosis

SEQ ID NO 518: gapmer of Tables 9-12 having this SEQ ID NO (antisense eG*e[5mC]*eT*eA*eG*dT*dG*dA*d[5mC]*dA*dG*dG*dT*dG*d[5mC]*eA*eG*eA*e[5mC]*eA)
apoptosis in T47D cells (T47D cells): prevent or have a protective effect from apoptosis

SEQ ID NO 519: gapmer of Tables 9-12 having this SEQ ID NO (antisense eG*eG*eG*e[5mC]*e[5mC]*dT*dA*dT*d[5mC]*d[5mC]*dA*dA*dA*dG*dT*eG*eA*e[5mC]*eA*eG)
apoptosis in T47D cells (T47D cells): induce apoptosis

SEQ ID NO 520: gapmer of Tables 9-12 having this SEQ ID NO (antisense eT*eA*e[5mC]*e[5mC]*eT*d[5mC]*dT*dG*d[5mC]*dA*dG*dT*dA*dT*dT*e[5mC]*eT*eA*e[5mC]*eA)
apoptosis in T47D cells (T47D cells): prevent or have a protective effect from apoptosis

SEQ ID NO 521: gapmer of Tables 9-12 having this SEQ ID NO (antisense eT*eT*eT*eA*e[5mC]*dT*d[5mC]*dA*dT*dA*d[5mC]*d[5mC]*dT*d[5mC]*dG*e[5mC]*eA*eA*e[5mC]*e[5mC])
apoptosis in T47D cells (T47D cells): induce apoptosis

SEQ ID NO 522: gapmer of Tables 9-12 having this SEQ ID NO (antisense eA*eA*eT*eT*eG*dT*dA*dT*dG*dA*d[5mC]*dA*dT*dT*dA*eA*eA*eT*e[5mC]*eA)
apoptosis in T47D cells (T47D cells): prevent or have a protective effect from apoptosis

SEQ ID NO 528: gapmer of Tables 9-12 having this SEQ ID NO (antisense eT*eG*eT*eT*eG*d[5mC]*d[5mC]*dT*dA*dA*d[5mC]*dG*dA*dA*d[5mC]*eA*e[5mC]*eA*eG*eA)
apoptosis in T47D cells (T47D cells): prevent or have a protective effect from apoptosis

SEQ ID NO 532: gapmer of Tables 9-12 having this SEQ ID NO (antisense e[5mC]*e[5mC]*eA*e[5mC]*eA*dT*dA*dT*dA*d[5mC]*dA*dT*dA*dT*dA*eT*eA*e[5mC]*eG*e[5mC])
apoptosis in T47D cells (T47D cells): prevent or have a protective effect from apoptosis

SEQ ID NO 534: gapmer of Tables 9-12 having this SEQ ID NO (antisense eG*eA*e[5mC]*e[5mC]*eT*dG*d[5mC]*dT*dA*d[5mC]*dT*d[5mC]*dA*d[5mC]*dT*e[5mC]*eT*e[5mC]*eG*eT)
apoptosis in T47D cells (T47D cells): prevent or have a protective effect from apoptosis

SEQ ID NO 535: gapmer of Tables 9-12 having this SEQ ID NO (antisense eG*eG*eT*eT*eG*dG*d[5mC]*d[5mC]*dG*d[5mC]*dA*dG*dA*d[5mC]*dT*e[5mC]*eG*eT*eA*e[5mC])
apoptosis in T47D cells (T47D cells): induce apoptosis

SEQ ID NO 536: gapmer of Tables 9-12 having this SEQ ID NO (eG*eA*eT*eG*eT*d[5mC]*dA*d[5mC]*dT*dG*dA*dG*dG*dA*dA*eA*eT*e[5mC]*eA*e[5mC])
apoptosis in T47D cells (T47D cells): prevent or have a protective effect from apoptosis

SEQ ID NO 539: gapmer of Tables 9-12 having this SEQ ID NO (e[5mC]*e[5mC]*eG*eG*e[5mC]*dT*dA*dT*dT*dG*dA*dG*dT*dT*dA*eT*eG*eT*eA*e[5mC])
apoptosis in T47D cells (T47D cells): induce apoptosis

SEQ ID NO 541: gapmer of Tables 9-12 having this SEQ ID NO (eG*eA*eG*e[5mC]*eA*dT*dG*d[5mC]*dA*dA*d[5mC]*dA*d[5mC]*dT*d[5mC]*eT*eG*eT*eG*e[5mC])
apoptosis in T47D cells (T47D cells): prevent or have a protective effect from apoptosis

SEQ ID NO 543: gapmer of Tables 9-12 having this SEQ ID NO (e[5mC]*eG*e[5mC]*eA*eT*d[5mC]*dT*dT*dG*dA*d[5mC]*dT*dG*dT*dA*eG*e[5mC]*eA*eT*eG)
apoptosis in T47D cells (T47D cells): prevent or have a protective effect from apoptosis

SEQ ID NO 544: gapmer of Tables 9-12 having this SEQ ID NO (eT*e[5mC]*eT*eA*eA*dG*dG*dG*dG*dT*d[5mC]*dA*d[5mC]*dA*dG*eA*eA*eG*eG*eT)
apoptosis in T47D cells (T47D cells): induce apoptosis

TACAACGGCATTGTCCTGAA (antisense; same sequence listed as MOE 5-10-5 gapmer and as uniform MOE, further chemistry not given here) [ISIS 328655]
apoptosis in T47D cells (T47D cells): prevent or have a protective effect from apoptosis

TACAATTTGGGAGTCCTGAA (antisense; same sequence listed as MOE 5-10-5 gapmer and as uniform MOE, further chemistry not given here) [ISIS 328689]
apoptosis in T47D cells (T47D cells): prevent or have a protective effect from apoptosis

TGCCATGAGATTCAACAGTC (2'-MOE gapmer, phosphorothioate, chemistry not fully specified) [ISIS 328415]
apoptosis in T47D cells (T47D cells): induce apoptosis

TGCTCAGCCAGCCCCATTCT (antisense; same sequence listed as MOE 5-10-5 gapmer and as uniform MOE, further chemistry not given here) [ISIS 328645]
apoptosis in T47D cells (T47D cells): induce apoptosis

TGCTGACTGCTCGCCCTTGC (antisense; same sequence listed as MOE 5-10-5 gapmer and as uniform MOE, further chemistry not given here) [ISIS 328641]
apoptosis in T47D cells (T47D cells): induce apoptosis

TTGTATGGACATTTAAATCA (antisense; same sequence listed as MOE 5-10-5 gapmer and as uniform MOE, further chemistry not given here) [ISIS 328692]
apoptosis in T47D cells (T47D cells): induce apoptosis

TTTCAGGCTCACCTCCCCAG (antisense; same sequence listed as MOE 5-10-5 gapmer and as uniform MOE, further chemistry not given here) [ISIS 328656]
apoptosis in T47D cells (T47D cells): induce apoptosis
